Experimental data taken from PMC10707468, “Pharmacokinetics of Novel Dopamine Transporter Inhibitor CE-123 and Modafinil with a Focus on Central Nervous System Distribution” (International Journal of Molecular Sciences, 2023).
“And” between values parts separate entries of the source, which are not always exact repeats. Equal values may be shown once. Read-outs that look alike come from different tables or passages of the source.

How the values were obtained:
[1] = In vivo rat tissue biodistribution / neuroPK study, 4 h intravenous constant infusion; set-up: species or system Sprague-Dawley rats; conditions: rat; for Kp at 4 h / concentration at 4 h: Sprague-Dawley; for Kp at 4 h: brain (whole brain homogenate) relative to plasma, steady state, read-out: Total brain-to-plasma concentration ratio, Kp,brain; for concentration at 4 h: intravenous, 20 mg/kg; for order of Kp,tissue from highest to lowest: total tissue-to-plasma concentration ratio
Protocol: The results are summarized in Figure 4 and Table S2 within Supplementary Materials.
(§1) In order to minimize the usage of animals and gain high confidence in the tissue distribution, a 4 h constant intravenous infusion study was designed based on the systemic pharmacokinetic parameters determined elsewhere. The catheters were surgically implanted a day before the PK experiment. The rats (n = 3 per compound) were then individually placed into a CMA 120 system (CMA, Solna, Sweden). […] A dose of 20 mg/kg was administered as a combination of an initial short 10 min infusion as a loading dose followed by a constant infusion up to 4 h, targeting a steady-state total plasma concentration of around 1000 ng/mL for each compound (based on the pilot study results). Blood was collected into heparinized Eppendorf tubes via a femoral artery catheter at 0 (before infusion starts) 1, 2, 3, and 4 h after the infusion started and immediately centrifuged at 10,000 rpm for 5 min at +4 °C. Plasma was then collected and kept at −20 °C. At 4 h, the rats were anesthetized via inhalation of 2.5% isoflurane (Abbot Scandinavia, Solna, Sweden), balanced with 1.5 L/min oxygen, after which the terminal blood and tissue samples were collected. […] The tissue samples (brain, spinal cord, liver, and kidney) were rapidly removed, pre-weighed into a 2 mL hard tissue homogenizing tube with mini-beads, and subsequently homogenized in 2 volumes of MQ water using a 4-Place Bead Mill Homogenizer (VWR, Stockholm, Sweden) at the maximal speed for 2 min and thereafter kept at +4 °C. The plasma and tissue homogenate samples were stored at −20 °C until LC–MS analysis.
For all the rat plasma and CSF samples, an aliquot of 50 µL was spiked with 50 µL of 4% PA in water containing the IS solution to disrupt the drug–protein binding. For all rat tissue samples (brain, spinal cord, liver, and kidney), an aliquot of 50 µL was spiked with 50 µL ice-cold ACN containing the IS solution for protein precipitation. The samples were vortexed and spun down for 10 min (3000× g, 4 °C) and 25 µL of clear supernatant was diluted with 225 µL 0.1% FA in water to achieve 10% of ACN in the solution. SPE clean-up was performed using an Oasis PRiME HLB µElution 96-well plate, 3 mg (Waters Corporation, Vienna, Austria). The SPE cartridges were preconditioned and equilibrated with 1 × 200 µL ACN and 0.1% FA in water each. The samples were loaded onto the cartridges and washed with 2 × 200 µL 0.1% FA in water and 1 × 200 µL ACN/0.1% FA in water 10:90 (v:v). The analytes were eluted from the SPE cartridge into a collection plate with 2 × 25 µL ACN/0.1% FA in water 70:30 (v:v). All the samples were diluted with 50 µL of 0.1% FA in water and 10 µL of sample was injected onto the LC–HRMS system.
All samples, blanks, standards, and quality control samples in the respective matrices were analyzed on a UHPLC system (Dionex UltiMate 3000 RSLC series system, Thermo Fisher Scientific, Inc., Dreieich, Germany) coupled with a high-resolution mass spectrometer (maXis HD Q-TOF, Bruker Daltonics, Bremen, Germany) equipped with a heated electrospray ionization (ESI) source. Reversed-phase chromatographic separation was performed on a Kinetex Phenyl-Hexyl column (2.6 µm, 2.1 × 50 mm, Phenomenex, Torrance, CA, USA), equipped with a precolumn (2.6 µm, Phenomenex, Torrance, CA, USA), at a flow rate of 0.4 mL/min. Eluent A was water containing 0.1% FA and eluent B ACN. A multi-step gradient was optimized as follows: the initial mobile phase composition (5% eluent B) was held constant for 1 min, followed by a linear increase to 30% eluent B until minute 1.5, to 40% eluent B until minute 5.5, and to 95% eluent B until minute 6. After a hold time of 2 min, the column was re-equilibrated for 2.5 min at the initial conditions (5% eluent B). The column compartment and the autosampler were maintained at 40 °C and at 8 °C, respectively. […]

[2] = Systemic pharmacokinetic parameters used in simulation exercise; type: in vivo, rat; conditions: parameter used in simulation; for clearance / Vd: plasma; for clearance: rat 0.3 kg, read-out: Systemic clearance, CL (converted); for Vd: rat, read-out: Apparent volume of distribution, Vd
Protocol: as §1
The simulation was performed at a given initial total plasma concentration to be equal to the steady-state concentrations obtained in the neuroPK study, utilizing the parameters listed in Supplementary Table S4. A two-compartment model consisting of blood and brain compartments with a focus on the unbound concentrations was used for the simulation exercise (see details on the structure of the model in Supplementary Figure S5). The representative unbound plasma and brain profiles are presented in Supplementary Figure S6.
Table S4. Parameters used in simulation exercise.
Fraction of un bound in unitless 0.252 0.797
Rate of BBB transport parameters*
Ext ent of BBB transport and intra-brain dist ribution
Unbound brain-t o-plasma unitless 0.46 0.097 concentrati on rat io, Kp,uu,brain
Unbound volume of mL/g brain 5.21 3.73 distribution in brain, Vu,brain
Additional parameters used
Infusi on rate mg/h 0.05 1.0
* Data of blood-brain barrier per meation of 100 µM CE-123 and modafinil across an in vitro Transw ell model based on mouse cell line cerebEND were included in the simulation. Experimental procedures were published previously The permeability coefficients w ere calculated according to the clearance principle deduct ing blank inserts without cells.
**Similar apparent permeability in human BBB cell culture model and rat endot helial cells was assumed.

SERT = test system: SERT; set-up: method as in PMID 29410048; conditions: cited from earlier work
CYP3A = test: CYP P450 inhibition in HLMs (Eurofins Panlabs); type: in vitro ADME, human; conditions: S-CE-123 10 µM
Protocol: In vitro metabolism assays for the cytochrome (CYP) P450 inhibition of S-CE-123 was outsourced to Eurofins Panlabs (St. Charles, MO, USA, study number 100050638). Briefly, 0.1 mg/mL of the HLMs was incubated for 10 min at 37 °C with substrate (10 µM phenacetin for CYP1A, 100 µM bupropion for CYP2B6, 10 µM amodiaquine for CYP2C8, 10 µM diclofenac for CYP2C9, 0.5 µM omeprazole for CYP2C19, 5 µM dextromethorphan for CYP2D6, 5 µM midazolam for CYP3A, and 50 µM testosterone for CYP3A4) in the presence/absence of S-CE-123 (10 µM). The peak areas corresponding to the metabolite of each substrate were recorded. The percent of control activity was then calculated by comparing the peak area obtained in the presence of the test compound to that obtained in the absence of the test compound. Subsequently, the percent inhibition was calculated by subtracting the percent control activity from 100 for each compound. The IC50 values (concentration causing a half-maximal inhibition of control values) were determined using non-linear regression analysis of the concentration–response curve using Hill equation curve fitting.

[3] = 4 h iv constant infusion 20 mg/kg
[4] = brain, 4 h iv constant infusion 20 mg/kg, n=3, read-out: Total concentration in brain
[5] = kidney, 4 h iv constant infusion 20 mg/kg, n=3, read-out: Total concentration in kidney
[6] = liver, 4 h iv constant infusion 20 mg/kg, n=3, read-out: Total concentration in liver
[7] = plasma, 4 h iv constant infusion 20 mg/kg, n=3, read-out: Total concentration in plasma
[8] = plasma, 4 h iv constant infusion 20 mg/kg, read-out: Total drug concentration in plasma, Ctot,plasma
[9] = plasma, 4 h iv constant infusion 20 mg/kg, read-out: Total steady-state plasma concentration, Cplasma,ss
[10] = plasma, mean, in vivo study, 4 h iv infusion 20 mg/kg, read-out: Unbound-drug concentration in plasma, Cu,plasma
[11] = spinal cord, 4 h iv constant infusion 20 mg/kg, n=3, read-out: Total concentration in spinal cord

Compound | Kp at 4 h [1, 3] | concentration at 4 h ([1]; CSF, cisterna magna, 4 h iv infusion 20 mg/kg, single rats, read-out: Total concentration in CSF) [ng/mL] | concentration at 4 h [1, 4] [ng/g] | concentration at 4 h ([1]; brain, single sample, rat brain after 4 h iv infusion 20 mg/kg, read-out: concentration in rat brain sample (Figure S4 chromatogram)) [ng/mL] | concentration at 4 h [1, 5] [ng/g] | concentration at 4 h [1, 6] [ng/g] | concentration at 4 h [1, 7] [ng/mL] | concentration at 4 h [1, 8] [µM] | concentration at 4 h [1, 9] [µM] | concentration at 4 h [1, 10] [µM] | concentration at 4 h [1, 11] [ng/g] | order of Kp,tissue from highest to lowest [1] | Systemic clearance unbound, Clu [2] [L/h] | clearance [2] [mL/min] | Vd [2] [L] | activity on SERT (SERT) | Total concentration in CSF ([1]; cisterna magna, 4 h iv infusion 20 mg/kg, single rats) | inhibition of control values (CYP3A)
NC(=O)C[S@@+]([O-])C(c1ccccc1)c1ccccc1 [R-modafinil, reference compound] | 0.29 ± 0.013 | 784 | 448 | 471 | 2540 | 2170 | 1010 | 3.69 | 5.57 ± 0.649 | 2.91 | 733 | kidneys > liver > spinal cord > brain | 1.194 | 25 | 1.02 |  |  | 
[O-][S@@+](Cc1cncs1)C(c1ccccc1)c1ccccc1 [S-CE-123] | 0.61 ± 0.1 |  | 820 |  | 1780 | 2730 | 1050 | 3.35 | 4.15 ± 2.2 | 0.839 | 1240 | liver > kidneys > spinal cord > brain | 0.046 | 3.07 | 0.232 | negligible activity | 570 ng/mL and 104 ng/mL | Low inhibition
